Experimental data published in ChEMBL document CHEMBL3046648, “Herbicidally Active N-(1-Arylethenyl)-2-chloroacetamides Bearing an Alkyloxyalkyl Moiety” (1991).
“And” between values parts separate entries of the source, which are not always exact repeats. Identical values can stand only once.

Columns and labels:
Assay type in all cases: functional
[1] = test system: Schoenoplectiella juncoides; assay: Herbicidal activity against Schoenoplectiella juncoides assessed as killing at 1 g/a at 25 degC measured after 3 weeks
[2] = test system: Schoenoplectiella juncoides; assay: Herbicidal activity against Schoenoplectiella juncoides assessed as killing at 10 g/a at 25 degC measured after 3 weeks
Cyperus difformis [3] = assay: Herbicidal activity against Cyperus difformis assessed as killing at 1 g/a at 25 degC measured after 3 weeks
Echinochloa oryzicola [4] = assay: Herbicidal activity against Echinochloa oryzicola assessed as killing at 1 g/a at 25 degC measured after 3 weeks
Kummerowia striata [5] = assay: Herbicidal activity against Kummerowia striata assessed as killing at 10 g/a at 25 degC measured after 2 weeks
[6] = Herbicidal activity against annual broad-leaf weeds assessed as killing at 10 g/a at 25 degC measured after 3 weeks
Digitaria ciliaris [7] = assay: Herbicidal activity against Digitaria ciliaris assessed as killing at 2.5 g/a at 25 degC measured after 2 weeks
Kummerowia striata [8] = assay: Herbicidal activity against Kummerowia striata assessed as killing at 2.5 g/a at 25 degC measured after 2 weeks
Setaria viridis [9] = assay: Herbicidal activity against Setaria viridis (green foxtail) assessed as killing at 10 g/a at 25 degC measured after 2 weeks
Stellaria media [10] = assay: Herbicidal activity against Stellaria media assessed as killing at 10 g/a at 25 degC measured after 2 weeks
Cyperus difformis [11] = assay: Herbicidal activity against Cyperus difformis assessed as killing at 10 g/a at 25 degC measured after 3 weeks
Setaria viridis [12] = assay: Herbicidal activity against Setaria viridis (green foxtail) assessed as killing at 2.5 g/a at 25 degC measured after 2 weeks
[13] = test system: Amaranthus blitum subsp. oleraceus; assay: Herbicidal activity against Amaranthus blitum subsp. oleraceus assessed as killing at 10 g/a at 25 degC measured after 2 weeks
Poa annua [14] = assay: Herbicidal activity against Poa annua assessed as killing at 2.5 g/a at 25 degC measured after 2 weeks
Pontederia vaginalis [15] = assay: Herbicidal activity against Monochoria vaginalis assessed as killing at 1 g/a at 25 degC measured after 3 weeks
[16] = test system: Amaranthus blitum subsp. oleraceus; assay: Herbicidal activity against Amaranthus blitum subsp. oleraceus assessed as killing at 2.5 g/a at 25 degC measured after 2 weeks
Pontederia vaginalis [17] = assay: Herbicidal activity against Monochoria vaginalis assessed as killing at 10 g/a at 25 degC measured after 3 weeks
Digitaria ciliaris [18] = assay: Herbicidal activity against Digitaria ciliaris assessed as killing at 10 g/a at 25 degC measured after 2 weeks
Echinochloa oryzicola [19] = assay: Herbicidal activity against Echinochloa oryzicola assessed as killing at 10 g/a at 25 degC measured after 3 weeks
Stellaria media [20] = assay: Herbicidal activity against Stellaria media assessed as killing at 2.5 g/a at 25 degC measured after 2 weeks
Poa annua [21] = assay: Herbicidal activity against Poa annua assessed as killing at 10 g/a at 25 degC measured after 2 weeks
[22] = Herbicidal activity against annual broad-leaf weeds assessed as killing at 1 g/a at 25 degC measured after 3 weeks

CCOCCN(C(=O)CCl)C(=C(C)C)c1ccccc1 [PETHOXAMID]
Activity [1]: 100%
Activity [2]: 100%
Activity (Cyperus difformis [3]): 100%
Activity (Echinochloa oryzicola [4]): 100%
Activity (Kummerowia striata [5]): 80%
Activity [6]: 100%
Activity (Digitaria ciliaris [7]): 100%
Activity (Kummerowia striata [8]): 80%
Activity (Setaria viridis [9]): 100%
Activity (Stellaria media [10]): 100%
Activity (Cyperus difformis [11]): 100%
Activity (Setaria viridis [12]): 100%
Activity [13]: 100%
Activity (Poa annua [14]): 80%
Activity (Pontederia vaginalis [15]): 100%
Activity [16]: 100%
Activity (Pontederia vaginalis [17]): 100%
Activity (Digitaria ciliaris [18]): 100%
Activity (Echinochloa oryzicola [19]): 100%
Activity (Stellaria media [20]): 80%
Activity (Poa annua [21]): 100%

COCCN(C(=O)CCl)C(=C(C)C)c1ccc(Br)cc1
Activity [22]: 80%
Activity [1]: 80%
Activity [2]: 100%
Activity (Cyperus difformis [3]): 100%
Activity (Echinochloa oryzicola [4]): 100%
Activity [6]: 100%
Activity (Cyperus difformis [11]): 100%
Activity (Pontederia vaginalis [15]): 100%
Activity (Pontederia vaginalis [17]): 100%
Activity (Echinochloa oryzicola [19]): 100%

CCC=C(c1ccccc1)N(CCOC)C(=O)CCl
Activity [22]: 0%
Activity [1]: 0%
Activity [2]: 100%
Activity (Cyperus difformis [3]): 80%
Activity (Echinochloa oryzicola [4]): 60%
Activity [6]: 80%
Activity (Cyperus difformis [11]): 100%
Activity (Pontederia vaginalis [15]): 0%
Activity (Pontederia vaginalis [17]): 100%
Activity (Echinochloa oryzicola [19]): 100%

COCCN(C(=O)CCl)C(=C(C)C)c1ccc(Br)s1
Activity [22]: 80%
Activity [1]: 60%
Activity [2]: 100%
Activity (Cyperus difformis [3]): 80%
Activity (Echinochloa oryzicola [4]): 100%
Activity [6]: 100%
Activity (Cyperus difformis [11]): 100%
Activity (Pontederia vaginalis [15]): 60%
Activity (Pontederia vaginalis [17]): 100%
Activity (Echinochloa oryzicola [19]): 100%

COCCN(C(=O)CCl)C(=C(C)C)c1ccccc1Cl
Activity [22]: 0%
Activity [1]: 80%
Activity [2]: 100%
Activity (Cyperus difformis [3]): 100%
Activity (Echinochloa oryzicola [4]): 80%
Activity [6]: 100%
Activity (Cyperus difformis [11]): 100%
Activity (Pontederia vaginalis [15]): 0%
Activity (Pontederia vaginalis [17]): 100%
Activity (Echinochloa oryzicola [19]): 100%

COCCN(C(=O)CCl)C(=C(C)C)c1cccs1
Activity [22]: 0%
Activity [1]: 100%
Activity [2]: 100%
Activity (Cyperus difformis [3]): 100%
Activity (Echinochloa oryzicola [4]): 100%
Activity [6]: 100%
Activity (Cyperus difformis [11]): 100%
Activity (Pontederia vaginalis [15]): 100%
Activity (Pontederia vaginalis [17]): 100%
Activity (Echinochloa oryzicola [19]): 100%

CCOCCCN(C(=O)CCl)C(=C(C)C)c1ccccc1
Activity [22]: 40%
Activity [1]: 40%
Activity [2]: 100%
Activity (Cyperus difformis [3]): 60%
Activity (Echinochloa oryzicola [4]): 80%
Activity [6]: 100%
Activity (Cyperus difformis [11]): 100%
Activity (Pontederia vaginalis [15]): 0%
Activity (Pontederia vaginalis [17]): 100%
Activity (Echinochloa oryzicola [19]): 100%

COCCN(C(=O)CCl)C(=C(C)C)c1ccc(OC)cc1
Activity [22]: 0%
Activity [1]: 80%
Activity [2]: 100%
Activity (Cyperus difformis [3]): 100%
Activity (Echinochloa oryzicola [4]): 80%
Activity [6]: 100%
Activity (Cyperus difformis [11]): 100%
Activity (Pontederia vaginalis [15]): 80%
Activity (Pontederia vaginalis [17]): 100%
Activity (Echinochloa oryzicola [19]): 100%

COC(CN(C(=O)CCl)C(=C(C)C)c1ccccc1)OC
Activity [22]: 80% and 100%
Activity [1]: 0%
Activity [2]: 100%
Activity (Cyperus difformis [3]): 100%
Activity (Echinochloa oryzicola [4]): 40%
Activity [6]: 100%
Activity (Cyperus difformis [11]): 100%
Activity (Pontederia vaginalis [15]): 0%
Activity (Pontederia vaginalis [17]): 100%
Activity (Echinochloa oryzicola [19]): 100%

COCCN(C(=O)CCl)C(=C(C)C)c1cc(C)ccc1C
Activity [22]: 20%
Activity [1]: 80%
Activity [2]: 100%
Activity (Cyperus difformis [3]): 80%
Activity (Echinochloa oryzicola [4]): 100%
Activity [6]: 100%
Activity (Cyperus difformis [11]): 100%
Activity (Pontederia vaginalis [15]): 40%
Activity (Pontederia vaginalis [17]): 100%
Activity (Echinochloa oryzicola [19]): 100%

COCCN(C(=O)CCl)C(=C(C)C)c1cccc(C)c1
Activity [22]: 100%
Activity [1]: 100%
Activity [2]: 100%
Activity (Cyperus difformis [3]): 100%
Activity (Echinochloa oryzicola [4]): 100%
Activity [6]: 100%
Activity (Cyperus difformis [11]): 100%
Activity (Pontederia vaginalis [15]): 100%
Activity (Pontederia vaginalis [17]): 100%
Activity (Echinochloa oryzicola [19]): 100%

COCCN(C(=O)CCl)C(=C(C)C)c1ccc(Oc2ccccc2)cc1
Activity [22]: 100%
Activity [1]: 60%
Activity [2]: 100%
Activity (Cyperus difformis [3]): 100%
Activity (Echinochloa oryzicola [4]): 100%
Activity [6]: 100%
Activity (Cyperus difformis [11]): 100%
Activity (Pontederia vaginalis [15]): 100%
Activity (Pontederia vaginalis [17]): 100%
Activity (Echinochloa oryzicola [19]): 100%

COCCN(C(=O)CCl)C(=C(C)C)c1ccc(SC)cc1
Activity [22]: 100%
Activity [1]: 0%
Activity [2]: 100%
Activity (Cyperus difformis [3]): 60%
Activity (Echinochloa oryzicola [4]): 40%
Activity [6]: 100%
Activity (Cyperus difformis [11]): 100%
Activity (Pontederia vaginalis [15]): 0%
Activity (Pontederia vaginalis [17]): 100%
Activity (Echinochloa oryzicola [19]): 100%

COCCN(C(=O)CCl)C(=C(C)C)c1cccc(Cl)c1
Activity [22]: 80%
Activity [1]: 80%
Activity [2]: 100%
Activity (Cyperus difformis [3]): 80%
Activity (Echinochloa oryzicola [4]): 80%
Activity [6]: 100%
Activity (Cyperus difformis [11]): 100%
Activity (Pontederia vaginalis [15]): 60%
Activity (Pontederia vaginalis [17]): 100%
Activity (Echinochloa oryzicola [19]): 100%

COCCN(C(=O)CCl)C(=C(C)C)c1ccc(C)cc1C
Activity [22]: 0%
Activity [1]: 80%
Activity [2]: 100%
Activity (Cyperus difformis [3]): 80%
Activity (Echinochloa oryzicola [4]): 60%
Activity [6]: 80%
Activity (Cyperus difformis [11]): 100%
Activity (Pontederia vaginalis [15]): 0%
Activity (Pontederia vaginalis [17]): 100%
Activity (Echinochloa oryzicola [19]): 100%

CCc1cccc(C)c1N(C(=O)CCl)C(C)COC (stereo not given) [METOLACHOR]
Activity (Kummerowia striata [5]): 80%
Activity (Digitaria ciliaris [7]): 100%
Activity (Kummerowia striata [8]): 100%
Activity (Setaria viridis [9]): 100%
Activity (Stellaria media [10]): 60%
Activity (Setaria viridis [12]): 80%
Activity [13]: 80%
Activity (Poa annua [14]): 80%
Activity [16]: 100%
Activity (Digitaria ciliaris [18]): 100%
Activity (Stellaria media [20]): 60%
Activity (Poa annua [21]): 100%

CCc1cccc(CC)c1N(COC)C(=O)CCl [ALACHLOR]
Activity (Kummerowia striata [5]): 80%
Activity (Digitaria ciliaris [7]): 100%
Activity (Kummerowia striata [8]): 60%
Activity (Setaria viridis [9]): 100%
Activity (Stellaria media [10]): 80%
Activity (Setaria viridis [12]): 80%
Activity [13]: 100%
Activity (Poa annua [14]): 80%
Activity [16]: 80%
Activity (Digitaria ciliaris [18]): 100%
Activity (Stellaria media [20]): 40%
Activity (Poa annua [21]): 100%

COCCN(C(=O)CCl)C(=C(C)C)c1ccc(C)cc1
Activity [22]: 80%
Activity [1]: 80%
Activity [2]: 100%
Activity (Cyperus difformis [3]): 100%
Activity (Echinochloa oryzicola [4]): 80%
Activity [6]: 100%
Activity (Cyperus difformis [11]): 100%
Activity (Pontederia vaginalis [15]): 60%
Activity (Pontederia vaginalis [17]): 100%
Activity (Echinochloa oryzicola [19]): 100%

CCC(C)=C(c1ccccc1)N(CCOC)C(=O)CCl
Activity [22]: 40%
Activity [1]: 0%
Activity [2]: 100%
Activity (Cyperus difformis [3]): 80%
Activity (Echinochloa oryzicola [4]): 80%
Activity [6]: 100%
Activity (Cyperus difformis [11]): 100%
Activity (Pontederia vaginalis [15]): 0%
Activity (Pontederia vaginalis [17]): 100%
Activity (Echinochloa oryzicola [19]): 100%

CC=C(c1ccccc1)N(CCOC)C(=O)CCl
Activity [22]: 0%
Activity [1]: 0%
Activity [2]: 100%
Activity (Cyperus difformis [3]): 60%
Activity (Echinochloa oryzicola [4]): 40%
Activity [6]: 100%
Activity (Cyperus difformis [11]): 100%
Activity (Pontederia vaginalis [15]): 0%
Activity (Pontederia vaginalis [17]): 100%
Activity (Echinochloa oryzicola [19]): 100%

COCCN(C(=O)CCl)C(=C(C)C)c1ccc(C(C)(C)C)cc1
Activity [22]: 80%
Activity [1]: 60%
Activity [2]: 100%
Activity (Cyperus difformis [3]): 60%
Activity (Echinochloa oryzicola [4]): 80%
Activity [6]: 100%
Activity (Cyperus difformis [11]): 100%
Activity (Pontederia vaginalis [15]): 60%
Activity (Pontederia vaginalis [17]): 100%
Activity (Echinochloa oryzicola [19]): 100%

COCCN(C(=O)CCl)C(=C(C)C)c1ccc(Cl)cc1
Activity [22]: 100%
Activity [1]: 80%
Activity [2]: 100%
Activity (Cyperus difformis [3]): 100%
Activity (Echinochloa oryzicola [4]): 100%
Activity [6]: 100%
Activity (Cyperus difformis [11]): 100%
Activity (Pontederia vaginalis [15]): 100%
Activity (Pontederia vaginalis [17]): 100%
Activity (Echinochloa oryzicola [19]): 100%

CCC(CC)=C(c1ccccc1)N(CCOC)C(=O)CCl
Activity [22]: 0%
Activity [1]: 0%
Activity [2]: 100%
Activity (Cyperus difformis [3]): 40%
Activity (Echinochloa oryzicola [4]): 80%
Activity [6]: 80%
Activity (Cyperus difformis [11]): 100%
Activity (Pontederia vaginalis [15]): 0%
Activity (Pontederia vaginalis [17]): 100%
Activity (Echinochloa oryzicola [19]): 100%

COCCN(C(=O)CCl)C(=C(C)C)c1ccccc1C
Activity [22]: 80%
Activity [1]: 0%
Activity [2]: 100%
Activity (Cyperus difformis [3]): 80%
Activity (Echinochloa oryzicola [4]): 80%
Activity [6]: 80%
Activity (Cyperus difformis [11]): 100%
Activity (Pontederia vaginalis [15]): 0%
Activity (Pontederia vaginalis [17]): 80%
Activity (Echinochloa oryzicola [19]): 100%
